How the values were obtained:
MKK4 = molecular target: T1, MKK4 (Homo sapiens, UniProt P45985); assay: KINOMEscan competition binding assay, MKK4; conditions: read-out: Potency MKK4 (derived from % of control values, PoC)
T1 sequence (P45985 84-399): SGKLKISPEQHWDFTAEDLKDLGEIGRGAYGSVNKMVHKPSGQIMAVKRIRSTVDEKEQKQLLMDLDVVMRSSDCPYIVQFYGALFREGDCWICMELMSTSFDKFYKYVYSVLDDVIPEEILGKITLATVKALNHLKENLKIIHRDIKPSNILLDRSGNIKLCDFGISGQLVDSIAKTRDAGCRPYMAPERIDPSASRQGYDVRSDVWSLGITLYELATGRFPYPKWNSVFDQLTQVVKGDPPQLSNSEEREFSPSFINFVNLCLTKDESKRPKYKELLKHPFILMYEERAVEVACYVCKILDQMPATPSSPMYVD
Method: (§1) For investigation of the affinity to MKK4, MKK7 and JNK1, the kinases were produced in HEK-293 cells and subsequently tagged with DNA for qPCR detection. […] The liganded beads were blocked with excess biotin and washed with blocking buffer (SEABLOCK™ (Pierce), 1% BSA, 0.05% TWEEN®20, 1 mM DTT) to remove unbound ligand and to reduce nonspecific binding. […] All reactions were performed in polystyrene 96-well plates in a final volume of 0.135 mL. […] The kinase concentration in the eluates was measured by qPCR.

BRaf = BRaf (Homo sapiens, UniProt P15056); assay: KINOMEscan competition binding assay, selectivity BRaf versus MKK4; conditions: Test conc. 0.1 μM; ratio of percent of control; N/E* per footnote
Method: The assay was performed by combining three components: DNA-tagged kinase; immobilized ligand; and a test compound. The ability of the test compound to compete with the immobilized ligand was measured via quantitative PCR of the DNA tag. The technology is described in detail in Fabian, M. A. et al. A small molecule-kinase interaction map for clinical kinase inhibitors. Nat. […] Nat.
The test compounds were provided as 10 mM stock solutions. The test solutions at indicated final concentrations were prepared at DiscoverX.

MKK7 = molecular target: T2, MKK7 (Homo sapiens, UniProt O14733); assay: KINOMEscan competition binding assay, selectivity MKK7 versus MKK4; conditions: Test conc. 0.1 μM; ratio of percent of control; N/E* per footnote
T2 sequence (O14733 1-419): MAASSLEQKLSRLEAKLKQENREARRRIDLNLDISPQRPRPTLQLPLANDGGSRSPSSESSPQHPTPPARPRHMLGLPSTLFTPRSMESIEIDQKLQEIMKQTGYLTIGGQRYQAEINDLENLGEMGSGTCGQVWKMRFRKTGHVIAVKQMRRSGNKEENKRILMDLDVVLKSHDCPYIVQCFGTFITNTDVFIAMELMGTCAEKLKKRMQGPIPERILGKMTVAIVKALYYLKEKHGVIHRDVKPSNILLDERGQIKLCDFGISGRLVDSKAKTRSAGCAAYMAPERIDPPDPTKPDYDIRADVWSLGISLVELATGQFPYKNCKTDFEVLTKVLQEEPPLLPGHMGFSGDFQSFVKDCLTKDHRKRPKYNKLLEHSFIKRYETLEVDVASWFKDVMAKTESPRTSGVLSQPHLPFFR

JNK1 = JNK1 (Homo sapiens, UniProt P45983); assay: KINOMEscan competition binding assay, selectivity JNK1 versus MKK4; conditions: ratio of percent of control
Method: as §1

[1] = Test conc 0.1 μM, N/E* = PoC for JNK1 = 100

Sequence of BRaf (P15056 whole entry): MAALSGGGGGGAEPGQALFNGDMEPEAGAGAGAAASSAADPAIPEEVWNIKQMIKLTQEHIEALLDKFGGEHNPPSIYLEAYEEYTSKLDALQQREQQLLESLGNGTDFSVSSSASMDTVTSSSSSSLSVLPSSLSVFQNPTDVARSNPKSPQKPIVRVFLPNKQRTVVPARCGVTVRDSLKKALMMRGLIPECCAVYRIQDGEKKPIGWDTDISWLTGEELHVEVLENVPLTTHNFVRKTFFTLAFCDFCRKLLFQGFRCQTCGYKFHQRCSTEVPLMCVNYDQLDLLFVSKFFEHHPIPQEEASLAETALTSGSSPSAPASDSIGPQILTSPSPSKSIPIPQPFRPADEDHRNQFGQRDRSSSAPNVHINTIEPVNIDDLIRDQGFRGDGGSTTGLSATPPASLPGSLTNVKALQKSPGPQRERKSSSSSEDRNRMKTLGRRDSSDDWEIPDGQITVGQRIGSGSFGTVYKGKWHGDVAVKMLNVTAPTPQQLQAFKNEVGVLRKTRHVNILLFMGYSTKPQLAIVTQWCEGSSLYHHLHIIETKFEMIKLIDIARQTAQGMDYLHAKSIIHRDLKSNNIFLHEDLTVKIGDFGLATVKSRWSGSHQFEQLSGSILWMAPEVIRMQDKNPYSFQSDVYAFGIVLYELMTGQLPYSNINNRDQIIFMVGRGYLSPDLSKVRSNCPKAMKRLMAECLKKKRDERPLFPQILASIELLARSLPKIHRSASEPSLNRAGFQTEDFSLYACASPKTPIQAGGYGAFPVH
Sequence of JNK1 (P45983 1-384 isoform P45983-2): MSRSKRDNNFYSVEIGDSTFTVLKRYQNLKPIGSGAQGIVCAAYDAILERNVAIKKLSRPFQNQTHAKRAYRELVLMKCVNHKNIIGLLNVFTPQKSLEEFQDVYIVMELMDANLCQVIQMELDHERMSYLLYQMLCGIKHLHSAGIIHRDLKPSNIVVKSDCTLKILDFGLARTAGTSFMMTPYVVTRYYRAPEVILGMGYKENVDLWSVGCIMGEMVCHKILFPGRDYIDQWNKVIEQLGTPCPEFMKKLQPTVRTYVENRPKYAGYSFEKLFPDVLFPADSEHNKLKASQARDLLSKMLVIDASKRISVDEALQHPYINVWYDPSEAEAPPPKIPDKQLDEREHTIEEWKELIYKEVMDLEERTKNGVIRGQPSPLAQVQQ

| Structure (SMILES) | remaining binding at 0.1 µM (MKK4) | Selectivity BRaf/MKK4 (BRaf) | Selectivity MKK7/MKK4 (MKK7) | Selectivity JNK1/MKK4 (JNK1; [1]) | remaining binding at 1 µM (MKK4) | Selectivity JNK1/MKK4 (JNK1; Test conc 10 μM) |
| --- | --- | --- | --- | --- | --- | --- |
| CCCS(=O)(=O)Nc1cc(C)cc(C(=O)c2c[nH]c3ncc(-c4ccc(Cl)cc4)cc23)c1 [Example 24, N-(3-(5-(4-Chlorophenyl)-1H-pyrrolo[2,3-b]pyridine-3-carbonyl)-5-methylphenyl)propane-1-sulfonamide] | > 30% | 0.9 | 1.0 | N/E* (PoC for JNK1 = 100) |  |  |
| CCCS(=O)(=O)Nc1ccc(F)c(C(=O)c2c[nH]c3ncc(-c4ccc(OCC)cc4Cl)cc23)c1F [Example 95, N-(3-(5-(2-chloro-4-ethoxy-phenyl)-1H-pyrrolo[2,3-b]pyridine-3-carbonyl)-2,4-difluorophenyl)-propane-1-sulfonamide] | < 10% | 6.5 | N/E* (PoC for JNK1 = 100) | 8.6 |  |  |
| CCCS(=O)(=O)Nc1cccc(C(=O)c2c[nH]c3ncc(-c4ccc(Cl)cc4)cc23)c1C [Example 25, N-(3-(5-(4-Chlorophenyl)-1H-pyrrolo[2,3-b]pyridine-3-carbonyl)-2-methylphenyl)propane-1-sulfonamide] | > 30% | 1.0 | 1.0 | N/E* (PoC for JNK1 = 100) |  |  |
| CCCS(=O)(=O)Nc1ccc(F)c(C(=O)c2c[nH]c3ncc(-c4ccc(Cl)cc4Cl)cc23)c1F [Example 41, N-(3-(5-(2,4-Dichlorophenyl)-1H-pyrrolo[2,3-b]pyridine-3-carbonyl)-2,4-difluorophenyl)propane-1-sulfonamide] | > 30% | 3.3 | 3.3 | N/E* (PoC for JNK1 = 100) |  |  |
| CCCS(=O)(=O)Nc1ccc(F)c(C(=O)c2c[nH]c3ncc(-c4ccccc4O)cc23)c1F [Example 9, N-(2,4-Difluoro-3-(5-(2-hydroxyphenyl)-1H-pyrrolo[2,3-b]pyridine-3-carbonyl)phenyl)propane-1-sulfonamide] | > 30% | 4.2 | 6.7 |  |  | >10 |
| CCCS(=O)(=O)Nc1ccc(F)c(C(=O)c2c[nH]c3ncc(-c4cccc(C#N)c4)cc23)c1F [Example 14, N-(3-(5-(3-Cyanophenyl)-1H-pyrrolo[2,3-b]pyridine-3-carbonyl)-2,4-difluorophenyl)propane-1-sulfonamide] | 10 to 30% | 1.5 | 10 |  |  | 23 |
| CCCS(=O)(=O)Nc1ccc(F)c(C(=O)c2c[nH]c3ncc(-c4ccc(F)cc4)cc23)c1F [Example 11, N-(2,4-Difluoro-3-(5-(4-fluorophenyl)-1H-pyrrolo[2,3-b]pyridine-3-carbonyl)phenyl)propane-1-sulfonamide] | 10 to 30% | 6.3 | 25 |  |  | >100 |
| CCCS(=O)(=O)Nc1ccc(F)c(C(=O)c2c[nH]c3ncc(-c4ccc5c(c4)OCCO5)cc23)c1F [Example 15, N-(3-(5-(2,3-Dihydrobenzo[b][1,4]dioxin-6-yl)-1H-pyrrolo[2,3-b]pyridine-3-carbonyl)-2,4-difluorophenyl)propane-1-sulfonamide] | 10 to 30% | 2.0 | 30 |  |  | >100 |
| CCCS(=O)(=O)Nc1ccc(F)c(C(=O)c2c[nH]c3ncc(-c4ccc(Cl)cc4F)cc23)c1F [Example 49] | < 10% | 8.9 | N/E* (PoC for JNK1 = 100) | 7.1 |  |  |
| CCCS(=O)(=O)Nc1ccc(F)c(C(=O)c2c[nH]c3ncc(-c4cccc5ccccc45)cc23)c1F [Example 18, N-(2,4-Difluoro-3-(5-(naphthalen-1-yl)-1H-pyrrolo[2,3-b]pyridine-3-carbonyl)phenyl)propane-1-sulfonamide] | > 30% | 1.6 | 3 |  |  | 40 |
| CCCS(=O)(=O)Nc1ccc(F)c(C(=O)c2c[nH]c3ncc(-c4ccc(SC)cc4)cc23)c1F [Example 8, N-(2,4-Difluoro-3-(5-(4-(methylthio)phenyl)-1H-pyrrolo[2,3-b]pyridine-3-carbonyl)phenyl)propane-1-sulfonamide] | > 30% | 0.5 | 7.6 |  |  | >100 |
| CCCS(=O)(=O)Nc1ccc(F)c(C(=O)c2c[nH]c3ncc(-c4ccc(O)cc4Cl)cc23)c1F [Example 94, N-(3-(5-(2-chloro-4-hydroxy-phenyl)-1H-pyrrolo[2,3-b]pyridine-3-carbonyl)-2,4-difluoro-phenyl)propane-1-sulfonamide] | < 10% | 20 | 22 | 25 |  |  |
| CCCS(=O)(=O)Nc1ccc(F)c(C(=O)c2c[nH]c3ncc(-c4ccc(OC(C)C)cc4Cl)cc23)c1F [Example 96, N-(3-(5-(2-chloro-4-isopropoxy-phenyl)-1H-pyrrolo[2,3-b]pyridine-3-carbonyl)-2,4-difluorophenyl)-propane-1-sulfonamide] | 10 to 30% | 8.0 | N/E* (PoC for JNK1 = 100) | 8.7 |  |  |

Second part, the compound after the results:

| remaining binding at 0.1 µM (MKK4) | Selectivity BRaf/MKK4 (BRaf) | Selectivity MKK7/MKK4 (MKK7) | Selectivity JNK1/MKK4 (JNK1; [1]) | remaining binding at 1 µM (MKK4) | Selectivity JNK1/MKK4 (JNK1; Test conc 10 μM) | Structure (SMILES) |
| --- | --- | --- | --- | --- | --- | --- |
| > 30% | 17 | N/E* (PoC for JNK1 = 100) | 2.2 |  |  | CCCS(=O)(=O)Nc1ccc(F)c(C(=O)c2c[nH]c3ncc(-c4ccc(OCC5CC5)cc4Cl)cc23)c1F [Example 100, N-(3-(5-(2-chloro-4-(cyclopropyl-methoxy)phenyl)-1H-pyrrolo[2,3-b]pyridine-3-carbonyl)-2,4-difluorophenyl)propane-1-sulfonamide] |
| < 10% | 7.2 | N/E* (PoC for JNK1 = 100) | 28 |  |  | CCCS(=O)(=O)Nc1ccc(F)c(C(=O)c2c[nH]c3ncc(-c4ccccc4)cc23)c1F [Example 101, N-(2,4-difluoro-3-(5-phenyl-1H-pyrrolo[2,3-b]pyridine-3-carbonyl)phenyl)propane-1-sulfonamide] |
|  | N/E* (PoC for JNK1 = 100) | <1 | N/E* (PoC for JNK1 = 100) | > 30% |  | CCCS(=O)(=O)Nc1nc(C(=O)c2c[nH]c3ncc(-c4ccc(Cl)cc4)cc23)cs1 [Example 111, N-(4-(5-(4-chlorophenyl)-1H-pyrrolo[2,3-b]pyridine-3-carbonyl)thiazol-2-yl)propane-1-sulfonamide] |
| > 30% | 1.9 | 2.0 | 2.0 |  |  | CCCS(=O)(=O)Nc1ccc(F)c(C(=O)c2c[nH]c3ncc(-c4ccc(OC5CCCC5)cc4Cl)cc23)c1F [Example 99, N-(3-(5-(2-chloro-4-(cyclopentyl-oxy)phenyl)-1H-pyrrolo[2,3-b]pyridine-3-carbonyl)-2,4-difluorophenyl)propane-1-sulfonamide] |
| 10 to 30% | 6.5 | N/E* (PoC for JNK1 = 100) | 8.6 |  |  | CCCOc1ccc(-c2cnc3[nH]cc(C(=O)c4c(F)ccc(NS(=O)(=O)CCC)c4F)c3c2)c(Cl)c1 [Example 97, N-(3-(5-(2-chloro-4-propoxy-phenyl)-1H-pyrrolo[2,3-b]pyridine-3-carbonyl)-2,4-difluorophenyl)-propane-1-sulfonamide] |
| < 10% | 17 | N/E* (PoC for JNK1 = 100) | N/E* (PoC for JNK1 = 100) |  |  | CCCS(=O)(=O)Nc1ccc(F)c(C(=O)c2c[nH]c3ncc(-c4ccc(OCOC)cc4Cl)cc23)c1F [Example 102, N-(3-(5-(2-chloro-4-(methoxymethoxy)phenyl)-1H-pyrrolo[2,3-b]pyridine-3-carbonyl)-2,4-difluorophenyl)propane-1-sulfonamide] |

Source: patent US11040027B2, “Protein kinase inhibitors for promoting liver regeneration or reducing or preventing hepatocyte death” (HEPAREGENIX GMBH, priority 2017, dated 2021)
